The target in one test is T1, recombinant human CK2 (Homo sapiens, UniProt P68400).
T1 construct: purchased Upstate
The test is described as follows: CK2 assay (cell-free, 33P-ATP filter plate). It is filed as biochemical. Here is the method: Modulatory activity of compounds described herein was assessed in vitro in cell-free CK2 assays by the following method.
Test compounds in aqueous solution were added at a volume of 10 microliters, to a reaction mixture comprising 10 microliters Assay Dilution Buffer (ADB; 20 mM MOPS, pH 7.2, 25 mM beta-glycerolphosphate, 5 mM EGTA, 1 mM sodium orthovanadate and 1 mM dithiothreitol), 10 microliters of substrate peptide (RRRDDDSDDD, dissolved in ADB at a concentration of 1 mM), 10 microliters of recombinant human CK2 (25 ng dissolved in ADB; Upstate). Reactions were initiated by the addition of 10 microliters of ATP Solution (90% 75 mM MgCl2, 75 micromolar ATP dissolved in ADB; 10% [γ-^33P]ATP (stock 1 mCi/100 μl; 3000 Ci/mmol (Perkin Elmer) and maintained for 10 minutes at 30 degrees C. The reactions were quenched with 100 microliters of 0.75% phosphoric acid, then transferred to and filtered through a phosphocellulose filter plate (Millipore). After washing each well 5 times with 0.75% phosphoric acid, the plate was dried under vacuum for 5 min and, following the addition of 15 ul of scintillation fluid to each well, the residual radioactivity was measured using a Wallac luminescence counter.

In a further test the target is recombinant human PIM2 (Homo sapiens, UniProt Q9P1W9). Description: PIM-2 assay (33P-ATP filter plate). Format: biochemical. The settings on record: for inhibition at 2.5 µM: Table 6, read-out: PIM2: % inh @ 2.5 uM. Here is the method:
PIM-2 Assay Method: Test compounds dissolved and diluted in DMSO (2 μl) were added to a reaction mixture comprising 10 μl of 5× Reaction Buffer (40 mM MOPS pH 7.0, 5 mM EDTA), 10 μl of recombinant human PIM2 solution (4 ng PIM-2 dissolved in dilution buffer (20 mM MOPS pH 7.0; EDTA 1 mM; 5% Glycerol; 0.01% Brij 35; […]; […] 2-mercaptoethanol; 1 mg/ml BSA)) and 8 ul of water. Reactions were initiated by the addition of 10 ul of ATP Solution (49% (15 mM MgCl2; 75 uM ATP) 1% ([γ-^33P]ATP: Stock 1 mCi/1000; 3000Ci/mmol (Perkin Elmer)) and 10 ul of substrate peptide solution (RSRSSYPAGT, dissolved in water at a concentration of 1 mM), Reactions were maintained for 10 min at 30° C. The reactions were quenched with 100 ul of 0.75% Phosphoric acid, then transferred to and filtered through a Phosphocellulose filter plate (Millipore, MSPH-N6B-50). After washing each well 4 times with 0.75% Phosphoric acid, scintillation fluid (20 uL) was added to each well and the residual radioactivity was measured using a Wallac luminescence counter.

Another test relates to K-562. Description: Alamar Blue cell proliferation assay, K-562. Format: cell-based. The settings on record: Homo sapiens. Here is the method: (§1) A representative cell-proliferation assay protocol using Alamar Blue dye (stored at 4° C., use 20 ul per well) is described hereafter.
(§2) a. Split and trypsinize cells.
(§3) b. Count cells using hemocytometer.
(§4) c. Plate 4,000-5,000 cells per well in 100 μl of medium and seed into a 96-well plate according to the following plate layout. Add cell culture medium only to wells B10 to B12. Wells B1 to B9 have cells but no compound added.
(§5) d. Add 100 μl of 2× drug dilution to each well in a concentration shown in the plate layout above. At the same time, add 100 μl of media into the control wells (wells B10 to B12). Total volume is 200 μl/well.
(§6) e. Incubate four (4) days at 37° C., 5% CO2 in a humidified incubator.
(§7) f. Add 20 μl Alamar Blue reagent to each well.
(§8) g. Incubate for four (4) hours at 37° C., 5% CO2 in a humidified incubator.
(§9) h. Record fluorescence at an excitation wavelength of 544 nm and emission wavelength of 590 nm using a microplate reader.
(§10) In the assays, cells are cultured with a test compound for approximately four days, the dye is then added to the cells and fluorescence of […] dye is detected after approximately four hours. Different types of cells can be utilized in the assays (e.g., HCT-116 human colorectal carcinoma cells, PC-3 human prostatic cancer cells and MiaPaca human pancreatic carcinoma cells).
Background: The colour change of resazurin is a common sign of viable cells or microbes.

The subject of another test is MV-4-11. Description: Alamar Blue cell proliferation assay, MV-4-11. Format: cell-based. Conditions: Homo sapiens. The protocol: as §1, §2, §3, §4, §5, §6, §7, §8, §9, §10
A further test has as its system BxPC3. The test is described as follows: Alamar Blue cell proliferation assay, BxPC3. It is filed as cell-based. The settings on record: Homo sapiens. The protocol:
as §1, §2, §3, §4, §5, §6, §7, §8, §9, §10

The subject of a further test is MDAMB453. Description: Alamar Blue cell proliferation assay, MDAMB453. It is filed as cell-based. The settings on record: Homo sapiens. Here is the method:
as §1, §2, §3, §4, §5, §6, §7, §8, §9, §10

For another test, the system named is SUM-149PT. The test is described as follows: Alamar Blue cell proliferation assay, SUM-149PT. Format: cell-based. Conditions: Homo sapiens, SUM149PT. Here is the method:
as §1, §2, §3, §4, §5, §6, §7, §8, §9, §10

The target of the next test is recombinant PIM-1 (Homo sapiens, UniProt P11309). Description: PIM-1 assay (33P-ATP filter plate). It is filed as biochemical. The settings on record: Table 1; read-out: PIM1: IC50. The protocol:
The following procedure was used to assay the PIM-1 kinase activity of compounds of the invention. Other methods for assaying PIM-1 and other PIM kinases, as well as methods to assay for activity against the various kinases are known in the art.
In a final reaction volume of 50 ul, recombinant PIM-1 (1 ng) was incubated with 12 mM MOPS pH 7.0, 0.4 mM EDTA, glycerol 1%, brij 35 0.002%, 2-mercaptoethanol 0.02%, BSA 0.2 mg/ml, 100 uM KKRNRTLTK, 10 mM MgAcetate, 15 uM ATP, [γ-^33P-ATP] (specific activity approx. 500 cpm/pmol), DMSO 4% and test inhibitor compound at the required concentration. The reaction was initiated by the addition of the Magnesium ATP mixture. After 40 min incubation at 23° C., the reactions were quenched by the addition of 100 ul 0.75% Phosphoric acid, and the labeled peptide collected by filtration through a phosphocellulose filter plate. The plate was washed 4 times with 0.075% phosphoric acid (100 ul per well) and then, after the addition of scintillation fluid (20 ul per well), the counts were measured by a scintillation counter.

Another test relates to MDAMB231. Description: Alamar Blue cell proliferation assay, MDAMB231. The settings on record: Homo sapiens, MDA-MB-231, MDAMB231, Table 1, read-out: AB: MDAMB231 IC50. It is filed as cell-based. Here is the method: as §1, §2, §3, §4, §5, §6, §7, §8, §9, §10
The subject of test [1] is MiaPaca human pancreatic carcinoma cells. The test is described as follows: Alamar Blue cell proliferation assay, MiaPaCa. It is filed as cell-based. Conditions: MIA PaCa-2, Table 1, read-out: AB: MiaPaCa IC50. Here is the method:
as §1, §2, §3, §4, §5, §6, §7, §8, §9, §10

The test system of test [2] is PC-3 human prostatic cancer cells. The test is described as follows: Alamar Blue cell proliferation assay, PC3. The settings on record: PC-3, PC3, Table 1, read-out: AB: PC3. It is filed as cell-based. Here is the method:
as §1, §2, §3, §4, §5, §6, §7, §8, §9, §10

[3] abbreviates: K562, K-562, Table 5, read-out: AB: K-562 IC50.
Setting [4] is: MV4-11, MV-4-11, Table 5, read-out: AB: MV-4-11 IC50.
Setting [5] is: BXPC-3, BxPC3, Table 5, read-out: AB: BxPC3 IC50.
Setting [6] is: MDA-MB-453, MDAMB453, Table 5, read-out: AB: MDAMB453 IC50.
The mark [7] stands for this setting: Table 5, read-out: AB: SUM-149PT IC50.
Setting [8] is: BXPC-3, BxPC3, Table 6, read-out: AB: BxPC3 IC50.
[9] abbreviates: MDA-MB-453, MDAMB453, Table 6, read-out: AB: MDAMB453 IC50.
[10] abbreviates: Table 6, read-out: AB: SUM-149PT IC50.
[11] abbreviates: K562, K-562, Table 1, read-out: AB: K-562 IC50.
Where [12] appears, read: MV4-11, MV-4-11, Table 1, read-out: AB: MV-4-11 IC50.

Nine molecules from patent US20100331315A1, “RHODANINES AND RELATED HETEROCYCLES AS KINASE INHIBITORS” (priority 2009, published 2010) can be followed below.

Like-named read-outs stand apart in the source and are kept apart here.

T1 sequence (P68400 whole entry): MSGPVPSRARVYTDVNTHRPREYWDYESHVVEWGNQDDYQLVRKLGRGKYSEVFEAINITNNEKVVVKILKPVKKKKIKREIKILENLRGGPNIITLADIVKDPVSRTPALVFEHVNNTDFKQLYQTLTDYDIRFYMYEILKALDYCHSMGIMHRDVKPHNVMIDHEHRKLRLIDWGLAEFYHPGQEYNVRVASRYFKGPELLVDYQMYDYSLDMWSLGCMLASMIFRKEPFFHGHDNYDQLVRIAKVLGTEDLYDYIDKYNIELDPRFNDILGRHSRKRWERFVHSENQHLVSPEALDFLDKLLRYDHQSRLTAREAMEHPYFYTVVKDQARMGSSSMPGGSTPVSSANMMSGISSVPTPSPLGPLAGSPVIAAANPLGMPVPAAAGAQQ
T1 sequence (P67870 whole entry partner): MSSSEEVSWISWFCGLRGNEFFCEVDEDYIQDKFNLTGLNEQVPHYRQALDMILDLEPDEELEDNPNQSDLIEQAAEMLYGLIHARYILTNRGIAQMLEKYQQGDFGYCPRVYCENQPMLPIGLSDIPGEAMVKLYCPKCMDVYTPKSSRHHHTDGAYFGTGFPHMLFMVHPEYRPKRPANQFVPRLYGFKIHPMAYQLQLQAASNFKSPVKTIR
Chain of recombinant human PIM2 (Q9P1W9 whole entry): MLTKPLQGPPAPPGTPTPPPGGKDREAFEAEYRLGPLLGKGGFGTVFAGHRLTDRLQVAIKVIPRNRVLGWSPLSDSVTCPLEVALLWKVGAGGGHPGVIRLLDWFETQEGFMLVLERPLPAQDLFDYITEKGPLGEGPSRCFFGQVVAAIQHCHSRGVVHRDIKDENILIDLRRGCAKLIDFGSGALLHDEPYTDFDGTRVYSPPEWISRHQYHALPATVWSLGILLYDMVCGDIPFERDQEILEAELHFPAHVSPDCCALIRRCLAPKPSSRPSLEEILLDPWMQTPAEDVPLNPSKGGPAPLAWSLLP
Chain of recombinant PIM-1 (P11309 whole entry): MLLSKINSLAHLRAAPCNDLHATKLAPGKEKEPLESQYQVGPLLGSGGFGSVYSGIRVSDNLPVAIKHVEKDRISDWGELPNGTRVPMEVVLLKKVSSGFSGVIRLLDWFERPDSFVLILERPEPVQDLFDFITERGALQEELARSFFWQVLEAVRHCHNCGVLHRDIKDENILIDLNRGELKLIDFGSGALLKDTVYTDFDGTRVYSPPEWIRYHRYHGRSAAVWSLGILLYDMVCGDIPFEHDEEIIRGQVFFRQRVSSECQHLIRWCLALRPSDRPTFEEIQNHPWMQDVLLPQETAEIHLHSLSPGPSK

As for `O=C1NC(=O)/C(=C\c2ccc(F)c(-c3cncc(N4CCCN(C(=O)C5CC5)CC4)n3)c2)S1`, the IC50 on recombinant human CK2 (Table 5) is below 0.05 µM; at recombinant human PIM2 (Table 5), below 0.05 µM; in the test with K-562 (setting [3]), 0.321 µM; in the test with MV-4-11 (setting [4]) it was 2.78 µM; with BxPC3 (setting [5]), 23.1 µM; in the test with MDAMB453 (setting [6]) it was 4.09 µM. Also, the IC50 with SUM-149PT (setting [7]) stood at 3.94 µM.

Turning to `COC(=O)N1CCCN(c2cncc(-c3cc(/C=C4/SC(=O)NC4=O)ccc3F)n2)CC1`, the IC50 was below 0.05 µM at recombinant human CK2 (Table 5); below 0.05 µM at recombinant human PIM2 (Table 5); 3.65 µM with K-562 (setting [3]); 2.52 µM in the test on MV-4-11 (setting [4]); 18.9 µM in the test with BxPC3 (setting [5]); 3.59 µM with MDAMB453 (setting [6]). For the same molecule, in the test with SUM-149PT (setting [7]), the IC50 is 2.05 µM.

Take `C[C@H](Nc1cncc(-c2csc(/C=C3\SC(=O)NC3=O)c2)n1)C1CC1`: the IC50 was determined as 0.024 µM at recombinant human CK2 (Table 6), 16.7 µM with BxPC3 (setting [8]), 19.2 µM in the test on MDAMB453 (setting [9]) and 8.72 µM in the test with SUM-149PT (setting [10]). On recombinant human PIM2, the inhibition at 2.5 µM worked out at 99.4%.

With `CC(C)NC(=O)N1CCCN(c2cncc(-c3cc(/C=C4/SC(=O)NC4=O)ccc3F)n2)CC1`, the IC50 at recombinant human CK2 (Table 5) was below 0.05 µM; on recombinant human PIM2 (Table 5), below 0.05 µM; in the test with MV-4-11 (setting [4]) it was 7.7 µM; in the test with MDAMB453 (setting [6]), 6.28 µM; in the test on SUM-149PT (setting [7]) it was 1.56 µM.

`CC(C)(C)CC(=O)N1CCCN(c2cncc(-c3cc(/C=C4/SC(=O)NC4=O)ccc3F)n2)CC1`: the IC50 was below 0.05 µM at recombinant human CK2 (Table 5); below 0.05 µM at recombinant human PIM2 (Table 5); 1.21 µM with K-562 (setting [3]); 3.23 µM with MV-4-11 (setting [4]); 10.2 µM with BxPC3 (setting [5]); 2.76 µM with MDAMB453 (setting [6]). For the same molecule, the IC50 in the test on SUM-149PT (setting [7]) turned out to be 1.46 µM.

In the case of `C[C@H](Nc1cncc(-c2cccc(/C=C3\SC(=O)NC3=O)c2)n1)C1CC1`, the IC50 on recombinant human CK2 (Table 6) was 0.00144 µM; with BxPC3 (setting [8]), 17.2 µM; with MDAMB453 (setting [9]), 7.21 µM; in the test on SUM-149PT (setting [10]), 0.703 µM. The inhibition at 2.5 µM at recombinant human PIM2 was determined as 99.9%.

Take `O=C1NC(=S)S/C1=C\c1ccc(-c2ccc(C(=O)NCc3ccccn3)cc2)o1`: the IC50 on recombinant human CK2 (Table 1) was 0.04 µM; on recombinant PIM-1 it was 0.286 µM; in the test on K-562 (setting [11]), above 10 µM; in the test on MV-4-11 (setting [12]), 8.83 µM; in the test on MDAMB231, above 10 µM; in [1], above 10 µM. The IC50 in test [2] is above 30 µM.

Take `CN1CCCN(C(=O)c2cccc(-c3ccc(/C=C4\SC(=S)NC4=O)o3)c2)CC1`: the IC50 on recombinant human CK2 (Table 1) was 0.047 µM; at recombinant PIM-1, 0.005 µM; on recombinant human PIM2 (Table 1) it was 0.013 µM; with K-562 (setting [11]) it was 2.89 µM; in the test on MV-4-11 (setting [12]), 0.406 µM; in the test with MDAMB231, above 10 µM. Moreover, the IC50 in [1] was 2.29 µM; in [2], above 30 µM.

Consider `COc1cc(OC)cc(C(=O)N2CCCN(c3cncc(-c4cc(/C=C5/SC(=O)NC5=O)ccc4F)n3)CC2)c1`, for which the figures for the IC50 at recombinant human CK2 (Table 5) and on recombinant human PIM2 (Table 5) were 0.181 µM and 0.175 µM, respectively.
